Experiment: Solubility of the lactam in 2-heptanone carrier oil
Format: physicochemical
Conditions: 'also soluble at 1%' (0.5% solution used in the example)
Protocol: 2-heptanone was used as the carrier (oil phase) for the lactam at a ratio of 1:199 (Lactam:Heptanone) which equates to 0.5% lactam solution. The inventor(s) have determined that the lactam is also soluble at 1%. The isocyanate was polymethylene polyphenyl isocyanate (Mn340) and the crosslinker was hexamethylenediamine (HMDA). Emulsification was carried out at a shear of 15K. The stabiliser is a commercial naphthalene sulphonate called Morwet-D425®. Morwet forms dark brown solutions so the encapsulated slurry is often buff/brown coloured.

In the case of `C=C1NC(=O)C=C1c1ccc(Cl)cc1` [Ref. 488, 4-(4-chlorophenyl)-5-methylene-pyrrol-2-one], the “solubility of lactam in 2-heptanone (carrier oil)” value was at least 1%.
